Source: US20120004314A1, “ANTIMICROBIAL COMPOSITION” (AMBRIA DERMATOLOGY AB, priority 2008, published 2012)
Marks after values point to notes of the source that are not given here.

Columns and labels:
Type in all cases: cell-based
[1] = tested on: S. aureus (CCUG 17621); test: MIC by agar dilution assay, S. aureus
Method: (§1) Chlorhexidine digluconate (CHG) solution, 20% water, […]-25ML, (Sigma, St. Louis, USA) and PD, (BASF AG, Ludwigshafen, Germany) were used in the study and the following reference strains were tested; C. albicans (CCUG 5594), S. aureus (CCUG 17621) and P. acnes (CCUG 1794). Minimum inhibitory concentration of CHG and pentane-1,5-diol (PD) were determined by agar dilution assay. A series of dilutions of each compound were prepared in blood agar medium for P. acnes, and in Diagnostic Sensitivity Test (DST) agar (Oxoid, Basingstoke, UK) for C. albicans and S. aureus. Dilution series with each agent were made with freshly prepared agar at 48-50° C. Final concentration ranges were as follows: CHG solution, 0.00001 to 1% (w/v) and PD, 1-30% (v/v). The prepared plates were solidified and used immediately. For each organism an inoculum was prepared by growing organisms on blood agar. Colonies were suspended in phosphate-buffered saline (PBS) and suspensions were adjusted to approximately 6×10^6 CFU/ml for C. albicans and P. acnes and 6×10^5 CFU/mL for S. aureus. The plates were inoculated with 20 μl spots and incubated for one day for C. albicans and S. aureus and three days for P. acnes. MICs were then determined as the lowest concentration of the compound inhibiting growth of the isolates. First the MICs of CHG and PD, respectively, were determined for each micro-organism. Then, a range of combined CHG and PD concentrations were tested on each micro-organism to determine if there was synergistic activity. The definition of synergistic effect is: “An effect that is greater than the sum of the effects of the two drugs, such as the equation: 1+1 . . . ”. Each isolate was tested twice.

[2] = tested on: P. acnes (CCUG 1794); test: MIC by agar dilution assay, P. acnes
Method: as §1

[3] = tested on: P. acnes; test: MIC on blood agar plates against P. acnes; set-up: key: +++: Same growth as on the control plate without any chlorhexidine and/or pentane-1,5-diol; ++: Reduced growth compared to the control; +: Very poor growth; −: No growth
Method: The minimal inhibitory concentration (MIC) of pentane-1,5-diol and chlorhexidine against P. acnes was determined using bacteria concentrations of 6×10^6 (20 μl applicated onto blood agar plates). The results are depicted below in table 4 and 5.
The minimal inhibitory concentration (MIC) of pentane-1,5-diol combined with chlorhexidine against P. acnes was determined using bacteria concentrations of 6×10^6 (20 μl applicated onto blood agar plates).

[4] = tested on: S. aureus; test: MIC on DST-agar plates against S. aureus; set-up: key: +++: Same growth as on the control plate without any chlorhexidine and/or pentane-1,5-diol; ++: Reduced growth compared to the control; +: Very poor growth; −: No growth
Method: The minimal inhibitory concentration (MIC) of pentane-1,5-diol and chlorhexidine against S. aureus was determined using bacteria concentrations of 6×10^6 (20 μl applicated onto DST-agar plates). The results are depicted below in table 1 and 2.
The minimal inhibitory concentration (MIC) of pentane-1,5-diol combined with chlorhexidine against S. aureus was determined using bacteria concentrations of 6×10^6 (20 μl applicated onto DST-agar plates).

[5] = tested on: C. albicans (CCUG 5594); test: MIC by agar dilution assay, C. albicans
Method: as §1

[6] = tested on: S. pyogenes A CCUG 4208; test: MIC on blood agar plates against S. pyogenes A CCUG 4208; set-up: key: +++: Same growth as on the control plate without any chlorhexidine and/or pentane-1,5-diol; ++: Reduced growth compared to the control; +: Very poor growth; −: No growth
Method: The minimal inhibitory concentration (MIC) of pentane-1,5-diol combined with chlorhexidine against S. pyogenes A CCUG 4208 was determined using bacteria concentrations of 6×10^7 (20 μl applicated onto blood agar plates). The results are depicted below in table 7 and 8.

[7] = S. aureus CCUG17621, agar dilution
[8] = P. acnes CCUG1794, agar dilution
[9] = C. albicans CCUG5594, agar dilution
[10] = growth grade at pentane-1,5-diol 5 wt %
[11] = growth grade at pentane-1,5-diol 6 wt %
[12] = growth grade at pentane-1,5-diol 7 wt %
[13] = growth grade at pentane-1,5-diol 10 wt %
[14] = growth grade at pentane-1,5-diol 20 wt %
[15] = growth grade at pentane-1,5-diol 30 wt %

**Q.** How did the “factor by which MIC of CHG was lower than PD” value ([1]; S. aureus) turn out when `[H]/N=C(\N/C(=N/[H])NCCCCCCNC(=N)NC(=N)Nc1ccc(Cl)cc1)Nc1ccc(Cl)cc1` [Chlorhexidine, chlorhexidine digluconate] was run?
**A.** Its value is 6×10^−5.

**Q.** What about the “MIC combined CHG” value ([1]; S. aureus CCUG17621, CHG in combination with PD 8 v/v %) of the same compound?
**A.** The value was 0.00001 w/v %.

**Q.** What about the “MIC alone CHG” value [1, 7] of the same compound?
**A.** The value was 0.0001 w/v %.

**Q.** What about the “Ratio (alone/combined) CHG/CHG + PD” value ([1]; S. aureus CCUG17621, reduction of the MIC of CHG) of the same compound?
**A.** Its value is 10.

**Q.** What about the “factor by which MIC of CHG was lower than PD” value ([2]; P. acnes) of the same compound?
**A.** Its value is 9×10^−5.

**Q.** What about the “MIC combined CHG” value ([2]; P. acnes CCUG1794, CHG in combination with PD 3 v/v %) of the same compound?
**A.** The value was 0.00005 w/v %.

**Q.** What about the “MIC alone CHG” value [2, 8] of the same compound?
**A.** Its value is 0.0001 w/v %.

**Q.** And the “Ratio (alone/combined) CHG/CHG + PD” value ([2]; P. acnes CCUG1794, reduction of the MIC of CHG)?
**A.** Its value is 2.

**Q.** And the growth grade ([3]; growth grade at chlorhexidine 0.00001 wt %)?
**A.** The growth grade was “+++”.

**Q.** And the growth grade ([3]; growth grade at chlorhexidine 0.00005 wt %)?
**A.** Its growth grade is “++”.

**Q.** What about the growth grade ([3]; growth grade at chlorhexidine 0.0001 wt %) of the same compound?
**A.** Its growth grade is “−”.

**Q.** What about the growth grade ([3]; growth grade at chlorhexidine 0.0005 wt %) of the same compound?
**A.** Its growth grade is “−”.

**Q.** What about the growth grade ([3]; growth grade at chlorhexidine 0.001 wt %) of the same compound?
**A.** Its growth grade is “−”.

**Q.** What about the growth grade ([3]; growth grade at chlorhexidine 0.005 wt %) of the same compound?
**A.** Its growth grade is “−”.

**Q.** And the growth grade ([3]; growth grade at chlorhexidine 0.01 wt %)?
**A.** The growth grade was “−”.

**Q.** And the growth grade ([3]; growth grade at chlorhexidine 0.02 wt %)?
**A.** Its growth grade is “−”.

**Q.** What about the growth grade ([3]; growth grade at chlorhexidine 0.05 wt %) of the same compound?
**A.** The growth grade was “−”.

**Q.** And the growth grade ([3]; growth grade at chlorhexidine 0.1 wt %)?
**A.** The growth grade was “−”.

**Q.** And the growth grade ([3]; growth grade at chlorhexidine 0.5 wt %)?
**A.** The growth grade was “−”.

**Q.** What about the growth grade ([3]; growth grade at chlorhexidine 1 wt %) of the same compound?
**A.** The growth grade was “−”.

**Q.** And the bacterial growth grade ([4]; S. aureus, growth grade at chlorhexidine 0.00001 wt %)?
**A.** The bacterial growth grade was “+++”.

**Q.** What about the bacterial growth grade ([4]; S. aureus, growth grade at chlorhexidine 0.00005 wt %) of the same compound?
**A.** Its bacterial growth grade is “++”.

**Q.** And the bacterial growth grade ([4]; S. aureus, growth grade at chlorhexidine 0.0001 wt %)?
**A.** The bacterial growth grade was “−”.

**Q.** What about the bacterial growth grade ([4]; S. aureus, growth grade at chlorhexidine 0.0005 wt %) of the same compound?
**A.** Its bacterial growth grade is “−”.

**Q.** What about the bacterial growth grade ([4]; S. aureus, growth grade at chlorhexidine 0.001 wt %) of the same compound?
**A.** Its bacterial growth grade is “−”.

**Q.** What about the bacterial growth grade ([4]; S. aureus, growth grade at chlorhexidine 0.005 wt %) of the same compound?
**A.** The bacterial growth grade was “−”.

**Q.** And the bacterial growth grade ([4]; S. aureus, growth grade at chlorhexidine 0.01 wt %)?
**A.** Its bacterial growth grade is “−”.

**Q.** What about the bacterial growth grade ([4]; S. aureus, growth grade at chlorhexidine 0.02 wt %) of the same compound?
**A.** The bacterial growth grade was “−”.

**Q.** And the bacterial growth grade ([4]; S. aureus, growth grade at chlorhexidine 0.05 wt %)?
**A.** Its bacterial growth grade is “−”.

**Q.** What about the bacterial growth grade ([4]; S. aureus, growth grade at chlorhexidine 0.1 wt %) of the same compound?
**A.** The bacterial growth grade was “−”.

**Q.** What about the bacterial growth grade ([4]; S. aureus, growth grade at chlorhexidine 0.5 wt %) of the same compound?
**A.** Its bacterial growth grade is “−”.

**Q.** What about the bacterial growth grade ([4]; S. aureus, growth grade at chlorhexidine 1 wt %) of the same compound?
**A.** The bacterial growth grade was “−”.

**Q.** What about the “factor by which MIC of CHG was lower than PD” value ([5]; C. albicans) of the same compound?
**A.** The value was 1×10^−4.

**Q.** What about the “MIC combined CHG” value ([5]; C. albicans CCUG5594, CHG in combination with PD 3 v/v %) of the same compound?
**A.** Its value is 0.00005 w/v %.

**Q.** What about the “MIC alone CHG” value [5, 9] of the same compound?
**A.** Its value is 0.0005 w/v %.

**Q.** And the “Ratio (alone/combined) CHG/CHG + PD” value ([5]; C. albicans CCUG5594, reduction of the MIC of CHG)?
**A.** The value was 10.

**Q.** What about the growth grade ([6]; growth grade at chlorhexidine digluconate 0.00001 %) of the same compound?
**A.** The growth grade was “+++”.

**Q.** What about the growth grade ([6]; growth grade at chlorhexidine digluconate 0.00005 %) of the same compound?
**A.** The growth grade was “+++”.

**Q.** And the growth grade ([6]; growth grade at chlorhexidine digluconate 0.0001 %)?
**A.** The growth grade was “+”.

**Q.** And the growth grade ([6]; growth grade at chlorhexidine digluconate 0.0005 %)?
**A.** The growth grade was “−”.

**Q.** What about the growth grade ([6]; growth grade at chlorhexidine digluconate 0.001 %) of the same compound?
**A.** Its growth grade is “−”.

**Q.** What about the growth grade ([6]; growth grade at chlorhexidine digluconate 0.005 %) of the same compound?
**A.** Its growth grade is “−”.

**Q.** And the growth grade ([6]; growth grade at chlorhexidine digluconate 0.01 %)?
**A.** The growth grade was “−”.

**Q.** What about the growth grade ([6]; growth grade at chlorhexidine digluconate 0.05 %) of the same compound?
**A.** Its growth grade is “−”.

**Q.** What about the growth grade ([6]; growth grade at chlorhexidine digluconate 0.1 %) of the same compound?
**A.** Its growth grade is “−”.

**Q.** And the growth grade ([6]; growth grade at chlorhexidine digluconate 0.5 %)?
**A.** The growth grade was “−”.

**Q.** What does the source list for `OCCCCCO` [Pentane-1,5-diol, pentane-1,5-diol]?
**A.** MIC combined PD ([1]; S. aureus CCUG17621, PD in combination with CHG 0.00001 w/v %): 8 v/v %; MIC alone PD [1, 7]: 9 v/v %; Ratio (alone/combined) PD/PD + CHG ([1]; S. aureus CCUG17621, reduction of the MIC of PD): 1; MIC combined PD ([2]; P. acnes CCUG1794, PD in combination with CHG 0.00005 w/v %): 3 v/v %; MIC alone PD [2, 8]: 6 v/v %; Ratio (alone/combined) PD/PD + CHG ([2]; P. acnes CCUG1794, reduction of the MIC of PD): 2; growth grade ([3]; growth grade at pentane-1,5-diol 1 wt %): +++; growth grade ([3]; growth grade at pentane-1,5-diol 3 wt %): ++; growth grade [3, 10]: +; growth grade [3, 11]: −; growth grade [3, 12]: −; growth grade [3, 13]: −; growth grade [3, 14]: −; growth grade [3, 15]: −; bacterial growth grade [4, 10]: +++^a; bacterial growth grade [4, 11]: ++; bacterial growth grade [4, 12]: ++; bacterial growth grade ([4]; growth grade at pentane-1,5-diol 8 wt %): +; bacterial growth grade ([4]; growth grade at pentane-1,5-diol 9 wt %): −; bacterial growth grade [4, 13]: −; bacterial growth grade [4, 14]: −; bacterial growth grade [4, 15]: −; MIC combined PD ([5]; C. albicans CCUG5594, PD in combination with CHG 0.00005 w/v %): 3 v/v %; MIC alone PD [5, 9]: 5 v/v %; Ratio (alone/combined) PD/PD + CHG ([5]; C. albicans CCUG5594, reduction of the MIC of PD): 2; growth grade ([6]; growth grade at 1,5-pentanediol 2 %): +++; growth grade ([6]; growth grade at 1,5-pentanediol 4 %): ++; growth grade ([6]; growth grade at 1,5-pentanediol 6 %): +; growth grade ([6]; growth grade at 1,5-pentanediol 7 %): −; growth grade ([6]; growth grade at 1,5-pentanediol 8 %): −; growth grade ([6]; growth grade at 1,5-pentanediol 9 %): −; growth grade ([6]; growth grade at 1,5-pentanediol 10 %): −; growth grade ([6]; growth grade at 1,5-pentanediol 15 %): −
